Measured values from patent publication US8445496B2, “Crystalline forms of 4-[(2,4-dichloro-5-methoxyphenyl)amino]-6-methoxy-7-[3-(4-methyl-1-piperazinyl)propoxy]-3-quinolinecarbonitrile and methods of preparing the same” (Wyeth LLC, priority 2005, dated 2013).
Values after ≈ are worked out from the molar mass of the structure shown. “Also recorded” adds a separate entry of the source.

How the values were obtained:
[1] = Conversion of crystal form on treatment with water; format: physicochemical; conditions: for form conversion in heated water: water at 90° C. or 95° C.
Description: Forms II, III, IV and Form VI can all be transformed into Form I by treatment with water, e.g. by heating in water. The water may be at room temperature. The water may be heated to at least about 90° C., and as high as at least about 95° C.
Form V is the anhydrous form, producing substantially Pattern E in FIGS. 1 and 8 when scanned by XRD, and has the highest transition temperature of all the polymorphic forms, i.e., about 148° C. It is also readily converted to Form I by treatment with heated water. The water is heated to at least about 90° C., and more preferably is heated to at least about 95° C. […] This hydrated form is different from either Form I or V, as shown by the XRD scan in FIG. 4.
FIG. 3. This is a differential scanning calorimeter (DSC) plot and a theromogravimetric analysis (TGA) plot of Form V after suspension in water for two months and ten days at room temperature.

[2] = Solubility in water and formulation vehicles
[3] = Solid-state stability on exposure to light, humidity and heat (XRD and HPLC; water loss); format: physicochemical
[4] = physchem; conditions: Table 4, (batch size 95, 50, 120, 54, 18.5, 550 g)
[5] = Hygroscopicity by dynamic vapor sorption; format: physicochemical; conditions: 0% to 90% RH, monohydrate
Description: The hydroscopicity of the anhydrous Form V and the hydrated forms was determined using dyanamic vapor sorption, including the plot for Form I shown in FIG. 2. This was performed under the following conditions. RH was set at 0%, 30%, 52.5%, 75% and 90%, with the sample exposed for 3 hours at each RH for two full cycles.

[6] = Table 4, (batch size 95, 50, 120, 54, 18.5, 550 g), listed as Pattern D

Q: With `COc1cc(Nc2c(C#N)cnc3cc(OCCCN4CCN(C)CC4)c(OC)cc23)c(Cl)cc1Cl` [Form V, 4-[(2,4-dichloro-5-methoxyphenyl)amino]-6-methoxy-7-[3-(4-methyl-1-piperazinyl)propoxy]-3-quinolinecarbonitrile] as the compound, how does the “form change in water at room temperature” value ([1]; suspended in water at room temperature, 2 months (two months and ten days), DSC, TGA, XRD) read?
A: converted into a hydrated Form II; also recorded: hydrated to a metastable hydrate crystal form

Q: And the “form conversion in heated water” value [1]?
A: Converts to “I” in 95 °C

Q: For `COc1cc(Nc2c(C#N)cnc3cc(OCCCN4CCN(C)CC4)c(OC)cc23)c(Cl)cc1Cl` [Form IV, 4-[(2,4-dichloro-5-methoxyphenyl)amino]-6-methoxy-7-[3-(4-methyl-1-piperazinyl)propoxy]-3-quinolinecarbonitrile], which solubility ([2]; 2% Tween80/0.5% MC 0.06% acetic acid, aqueous with cosolvent or surfactant or cyclodextrin, Solubility, Table 4, (batch size 95, 50, 120, 54, 18.5, 550 g)) is on record?
A: 3500 µg/mL (≈ 6600 µM)

Q: What about the solubility ([2]; 2% Tween 80/03% MC, aqueous with cosolvent or surfactant or cyclodextrin, Solubility, Table 4, (batch size 95, 50, 120, 54, 18.5, 550 g)) of the same compound?
A: 70 µg/mL (≈ 132 µM)

Q: What about the “Solubility, 2% Tween80/0.5% MC 0.06% acetic acid” value [2, 6] of the same compound?
A: 2.68 (pH 5.2) mg/mL

Q: And the “Solubility, 2% Tween 80/03% MC” value [2, 6]?
A: 0.06 (pH 7.8) mg/mL

Q: What about the “form conversion in heated water” value ([1]; listed as D) of the same compound?
A: Converts to “I” in 90 °C

Q: With `COc1cc(Nc2c(C#N)cnc3cc(OCCCN4CCN(C)CC4)c(OC)cc23)c(Cl)cc1Cl.O` [Form I, 4-[(2,4-dichloro-5-methoxyphenyl)amino]-6-methoxy-7-[3-(4-methyl-1-piperazinyl)propoxy]-3-quinolinecarbonitrile monohydrate] as the compound, how does the “loss of water at 0% relative humidity” value ([3]; 0% relative humidity for 10 days) read?
A: does not lose water

Q: What about the “stability to humidity (XRD and HPLC)” value ([3]; 75% humidity at 40° C. for 3 months) of the same compound?
A: substantially pure and physically unchanged

Q: What about the “stability to heat (XRD and HPLC)” value ([3]; 90° C. for 2 weeks) of the same compound?
A: substantially pure and physically unchanged

Q: What about the “stability to light (XRD and HPLC)” value ([3]; 510 foot-candles (~5490 lux) light for two weeks) of the same compound?
A: substantially pure and physically unchanged

Q: What about the “loss of water on heating” value ([3]; heated to 90° C. for over 100 hours) of the same compound?
A: does not lose water

Q: And the “Solubility, 2% Tween80/0.5% MC 0.06% acetic acid” value ([2]; Table 4, (batch size 95, 50, 120, 54, 18.5, 550 g), listed as Pattern A, monohydrate)?
A: 4.25 (pH 5.7) mg/mL

Q: What about the solubility ([4]; aqueous with cosolvent or surfactant or cyclodextrin, 2% Tween80/0.5% MC 0.06% acetic acid) of the same compound?
A: 4000 µg/mL

Q: And the solubility ([4]; pH 7.2, water, Water)?
A: 1.8 µg/mL

Q: What about the hygroscopicity [5] of the same compound?
A: not hygroscopic; also recorded: non-hydroscopic

Q: Which “solubility enhancement with about 2% Tween80” value ([2]; about 2% Tween80) does the source give for `COc1cc(Nc2c(C#N)cnc3cc(OCCCN4CCN(C)CC4)c(OC)cc23)c(Cl)cc1Cl` [4-[(2,4-dichloro-5-methoxyphenyl)amino]-6-methoxy-7-[3-(4-methyl-1-piperazinyl)propoxy]-3-quinolinecarbonitrile] here?
A: about 100 fold

Q: What about the solubility ([2]; about 2% Tween80, aqueous with cosolvent or surfactant or cyclodextrin, solubility with addition of about 2% Tween80, about 2% Tween80 (detergent)) of the same compound?
A: 100 to 400 µg/mL (≈ 189 to 754 µM)

Q: What about the solubility ([2]; aqueous with cosolvent or surfactant or cyclodextrin, solubility with addition of about 0.06% acetic acid (in-situ acetate salt vehicle), about 2% Tween80 plus about 0.06% acetic acid) of the same compound?
A: 3000 to 4000 µg/mL

Q: What about the solubility ([2]; de-ionized water, pH 7.2, water, solubility in de-ionized water, partially ionized, resulting pH 7.2) of the same compound?
A: 1.8 µg/mL (≈ 3.39 µM)

Q: What about the “solubility enhancement with about 0.06% acetic acid” value ([2]; in-situ acetate salt vehicle) of the same compound?
A: ~1000 fold

Q: What about the solubility ([2]; pH 8, aqueous buffer, intrinsic (neutral form) solubility, pH 8.0) of the same compound?
A: ~0.06 µg/mL (≈ 0.113 µM)

Q: And the solubility ([2]; stomach acid, simulated gastric fluid, solubility in stomach acid)?
A: > 200000 µg/mL

Q: With `COc1cc(Nc2c(C#N)cnc3cc(OCCCN4CCN(C)CC4)c(OC)cc23)c(Cl)cc1Cl` [Form II, 4-[(2,4-dichloro-5-methoxyphenyl)amino]-6-methoxy-7-[3-(4-methyl-1-piperazinyl)propoxy]-3-quinolinecarbonitrile] as the compound, how does the “form conversion in heated water” value ([1]; listed as B) read?
A: Converts to “I” in 95 °C

Q: With `CO.COc1cc(Nc2c(C#N)cnc3cc(OCCCN4CCN(C)CC4)c(OC)cc23)c(Cl)cc1Cl` [Form VI, 4-[(2,4-dichloro-5-methoxyphenyl)amino]-6-methoxy-7-[3-(4-methyl-1-piperazinyl)propoxy]-3-quinolinecarbonitrile methanolate] as the compound, how does the “form conversion in heated water” value [1] read?
A: Converts to “I” in 95 °C

Q: For `CC(C)O.COc1cc(Nc2c(C#N)cnc3cc(OCCCN4CCN(C)CC4)c(OC)cc23)c(Cl)cc1Cl` [Form III, 4-[(2,4-dichloro-5-methoxyphenyl)amino]-6-methoxy-7-[3-(4-methyl-1-piperazinyl)propoxy]-3-quinolinecarbonitrile monoisopropyl alcoholate], which “form conversion in heated water” value [1] is on record?
A: Converts to “I” in 95 °C
